The target in the assay is T1, Recombinant human His6-USP1/His6-UAF1 complex protein (Homo sapiens, UniProt O94782).
T1 construct: His6; purchased R&D E-568-050
T1 sequence (O94782 whole entry): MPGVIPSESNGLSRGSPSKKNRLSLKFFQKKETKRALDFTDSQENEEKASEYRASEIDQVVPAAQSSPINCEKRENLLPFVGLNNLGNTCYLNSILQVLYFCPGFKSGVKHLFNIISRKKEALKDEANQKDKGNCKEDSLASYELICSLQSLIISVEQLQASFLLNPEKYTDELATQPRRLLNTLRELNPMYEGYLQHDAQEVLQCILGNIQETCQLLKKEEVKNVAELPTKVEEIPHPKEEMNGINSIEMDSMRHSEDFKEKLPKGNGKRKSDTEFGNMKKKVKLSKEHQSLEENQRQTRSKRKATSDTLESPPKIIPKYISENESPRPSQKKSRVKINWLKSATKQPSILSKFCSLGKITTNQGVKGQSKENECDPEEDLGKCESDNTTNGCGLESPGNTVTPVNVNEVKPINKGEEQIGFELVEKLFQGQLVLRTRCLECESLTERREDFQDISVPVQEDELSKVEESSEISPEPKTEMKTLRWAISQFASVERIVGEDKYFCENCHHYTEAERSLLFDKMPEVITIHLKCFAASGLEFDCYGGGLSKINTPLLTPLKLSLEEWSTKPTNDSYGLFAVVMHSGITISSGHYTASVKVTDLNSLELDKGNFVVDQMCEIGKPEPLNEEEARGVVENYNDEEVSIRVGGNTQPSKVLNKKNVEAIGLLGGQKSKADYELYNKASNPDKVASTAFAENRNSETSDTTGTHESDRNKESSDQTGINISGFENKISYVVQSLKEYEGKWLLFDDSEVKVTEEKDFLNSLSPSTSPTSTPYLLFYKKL
T1 sequence (Q8TAF3 whole entry partner): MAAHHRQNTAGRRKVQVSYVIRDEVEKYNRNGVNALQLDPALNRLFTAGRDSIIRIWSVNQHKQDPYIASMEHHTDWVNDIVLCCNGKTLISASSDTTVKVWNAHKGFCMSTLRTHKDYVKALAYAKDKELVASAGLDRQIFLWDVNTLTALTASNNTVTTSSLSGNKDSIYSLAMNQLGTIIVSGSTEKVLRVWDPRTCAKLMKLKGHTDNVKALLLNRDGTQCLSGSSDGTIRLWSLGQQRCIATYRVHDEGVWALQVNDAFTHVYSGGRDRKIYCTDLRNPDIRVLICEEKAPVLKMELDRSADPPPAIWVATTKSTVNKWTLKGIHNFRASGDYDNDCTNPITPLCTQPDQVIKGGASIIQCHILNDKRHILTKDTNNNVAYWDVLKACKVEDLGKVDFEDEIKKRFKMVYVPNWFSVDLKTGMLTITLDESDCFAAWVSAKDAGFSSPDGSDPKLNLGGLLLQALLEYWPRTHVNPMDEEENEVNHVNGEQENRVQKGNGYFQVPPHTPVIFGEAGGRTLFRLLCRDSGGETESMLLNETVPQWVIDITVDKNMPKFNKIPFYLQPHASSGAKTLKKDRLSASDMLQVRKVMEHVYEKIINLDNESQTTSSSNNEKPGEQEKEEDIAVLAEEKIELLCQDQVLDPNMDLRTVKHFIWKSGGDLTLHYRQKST
As to the kind of experiment: In vitro inhibitory activity against USP1 (Ubiquitin Rhodamine 110 fluorescence detection, 384-well plate). In kind it is biochemical. To be noted: Ub-Rho substrate, 1 hour pre-incubation, read after 30 minutes. Here is the method: Test Example 1: In vitro inhibitory activity against USP1 […]
Experimental object: to screen compounds with inhibitory activity against USP1 […] by a fluorescence detection method, using a 384-well plate.
Experimental materials: Recombinant human His6-USP1/His6-UAF1 complex protein (R&D, Cat. No.: E-568-050), Ubiquitin Rhodamine 110 protein (Ub-Rho) (R&D, Cat. No.: U-555-050), 384-well plate (Perkin Elmer, Cat. No.: 6007279); all compounds were dissolved in 100% DMSO to obtain 50 mM stock solutions.
• 1) Preparation of 1 × assay buffer: 1 × assay buffer (modified Tris buffer) was prepared; • 2) Dilution of compounds: the compounds were transferred to an assay plate via Echo.
With `COc1cnc(-c2ccccc2C(C)C)nc1N(C)Cc1ccc(-c2ccccn2)cc1` [Example 1, 2-(2-isopropylphenyl)-5-methoxy-N-methyl-N-(4-(pyridin-2-yl)benzyl)pyrimidin-4-amine], the IC50 – broadly, the concentration needed to halve the response being measured – is 26 nM. Turning to `COc1ncnc(C2CC2)c1-c1ncc2c(n1)N(Cc1ccc(-c3ccccn3)cc1)CCO2` [Example 9, 2-(4-Cyclopropyl-6-methoxypyrimidin-5-yl)-8-(4-(pyridin-2-yl)benzyl)-7,8-dihydro-6H-pyrimido[5,4-b][1,4]oxazine], the IC50 turned out to be 35 nM. For `COc1ncnc(C2CC2)c1-c1ncc2c(n1)N(CC1CCN(c3ccccn3)CC1)CCO2` [Example 10, 2-(4-Cyclopropyl-6-methoxypyrimidin-5-yl)-8-((1-(pyridin-2-yl)piperidin-4-yl)methyl)-7,8-dihydro-6H-pyrimido[5,4-b][1,4]oxazine], the IC50 came to 564 nM. Regarding `CC(C)c1ccccc1-c1ncc2c(n1)N(CC1CCC(c3nc(C(F)(F)F)cn3C)CC1)CCO2` [Example 13, 2-(2-Isopropylphenyl)-8-(((1R,4R)-4-(1-methyl-4-(trifluoromethyl)-1H-imidazol-2-yl)cyclohexyl)methyl)-7,8-dihydro-6H-pyrimido [5,4-b][1,4] oxazine], the IC50 stood at 1.9 nM. For `CC(C)c1ccccc1-c1ncc2c(n1)N(C[C@H]1CC[C@@H](c3nc(C(F)(F)F)cn3C)CC1)CCO2` [Example 14, 2-(2-Isopropylphenyl)-8-(((1s,4s)-4-(1-methyl-4-(trifluoromethyl)-1H-imidazol-2-yl)cyclohexyl)methyl)-7,8-dihydro-6H-pyrimido[5,4-b][1,4] oxazine], the half-inhibitory concentration (IC50) came to 60 nM. As to `CC(C)c1ccccc1-c1ncc(C(F)(F)F)c(NCc2ccc(-c3ccccn3)cc2)n1` [Example 16, 2-(2-Isopropylphenyl)-N-(4-(pyridin-2-yl)benzyl)-5-(trifluoromethyl)pyrimidin-4-amine], the IC50 amounted to 30.6 nM. Under `CC(C)c1ccccc1-c1ncc2c(n1)N(CC1CCN(c3nc(C(F)(F)F)cn3C)CC1)C(=O)CO2` [Example 24, 2-(2-Isopropylphenyl)-8-((1-(1-methyl-4-(trifluoromethyl)-1H-imidazol-2-yl)piperidin-4-yl)methyl)-6H-pyrimido[5,4-b][1,4]oxazin-7(8H)-one] stands 8.8 nM.

With `CC(C)c1ccccc1-c1ncc(C(F)(F)F)c(NCC2CCN(c3nc(C(F)(F)F)cn3C)CC2)n1` [Example 25, 2-(2-Isopropylphenyl)-N-((1-(1-methyl-4-(trifluoromethyl)-1H-imidazol-2-yl)piperidin-4-yl)methyl)-5-(trifluoromethyl)pyrimidin-4-amine], the IC50 amounted to 3.7 nM. For `COc1cnc(-c2c(OC)ncnc2C2CC2)nc1NCc1ccc(-c2nc(C(F)(F)F)cn2C)cc1` [Example 29, 4'-Cyclopropyl-5,6'-dimethoxy-N-(4-(1-methyl-4-(trifluoromethyl)-1H-imidazol-2-yl)benzyl)-[2,5'-bipyrimidin]-4-amine], the IC50 was found to be 4.8 nM. The same measure for `COc1ncnc(C2CC2)c1-c1ncc2c(n1)N(CC1CCN(c3nc(C(F)(F)F)cn3C)CC1)C(=O)CO2` [Example 30, 2-(4-Cyclopropyl-6-methoxypyrimidin-5-yl)-8-((1-(1-methyl-4-(trifluoromethyl)-1H-imidazol-2-yl)piperidin-4-yl)methyl)-6H-pyrimido[5,4-b][1,4]oxazin-7(8H)-one]: 37 nM; for `COc1ncnc(C2CC2)c1-c1nc(NCc2ccc(-c3ccccn3)cc2)c2[nH]ccc2n1` [Example 37, 2-(4-Cyclopropyl-6-methoxypyrimidin-5-yl)-N-(4-(pyridin-2-yl)benzyl)-5H-pyrrolo[3,2-d]pyrimidin-4-amine]: 51 nM; for `COc1cnc(-c2ccccc2C(C)C)nc1NCc1ccc2c(c1)CN(C1CCC(=O)NC1=O)C2=O` (centres unmarked) [Example 41, 3-(5-(((2-(2-Isopropylphenyl)-5-methoxypyrimidin-4-yl)amino)methyl)-1-oxoisoindolin-2-yl)piperidine-2,6-dione]: 1260 nM. The same measure for `COc1cnc(-c2ccccc2C(C)C)nc1NCc1ccc(OCc2ccccn2)cc1` [Example 67, 2-(2-Isopropylphenyl)-5-methoxy-N-(4-(pyridin-2-ylmethoxy)benzyl)pyrimidin-4-amine]: 5.3 nM; for `CC(C)Oc1cnc(-c2ccccc2C(C)C)nc1NCC12CCC(c3ccc(C(F)(F)F)cn3)(CC1)CC2` [Example 74, 5-Isopropoxy-2-(2-isopropylphenyl)-N-((4-(5-(trifluoromethyl)pyridin-2-yl)bicyclo[2.2.2]octan-1-yl)methyl)pyrimidin-4-amine]: 873 nM. As to `CC(C)c1ccccc1-c1ncc(C(F)(F)F)c(NCC2CCN(c3ccccn3)CC2)n1` [Example 76, 2-(2-Isopropylphenyl)-N-((1-(pyridin-2-yl)piperidin-4-yl)methyl)-5-(trifluoromethyl)pyrimidin-4-amine], the IC50 is 30.1 nM. The same measure for `CC(C)c1ccccc1-c1nc(NCc2ccc3c(c2)CCN(C)C3=O)c2occc2n1` [Example 77, 6-(((2-(2-Isopropylphenyl)furo[3,2-d]pyrimidin-4-yl)amino)methyl)-2-methyl-3,4-dihydroisoquinolin-1 (2H)-one]: 28 nM; for `CC(C)c1ccccc1-c1nc(NCc2ccc3c(c2)CCN(C(C)C)C3=O)c2occc2n1` [Example 78, 2-Isopropyl-6-(((2-(2-isopropylphenyl)furo[3,2-d]pyrimidin-4-yl)amino)methyl)-3,4-dihydroisoquinolin-1(2H)-one]: 6.4 nM. Under `CCOCCOc1ccc(CNc2nc(-c3ccccc3C(C)C)nc3ccoc23)cc1` [Example 79, N-(4-(2-Ethoxyethoxy)benzyl)-2-(2-isopropylphenyl)furo[3,2-d]pyrimidin-4-amine] stands 4.5 nM; under `COC1CC(Oc2ccc(CNc3nc(-c4ccccc4C(C)C)nc4ccoc34)cc2)C1` (centres unmarked) [Example 80, 2-(2-Isopropylphenyl)-N-(4-(3-methoxycyclobutoxy)benzyl)furo[3,2-d]pyrimidin-4-amine], 26 nM. Under `CC(C)c1ccccc1-c1ncc(N2CCOCC2)c(NCc2ccc(-c3nc(C(F)(F)F)cn3C)cc2)n1` [Example 87, 2-(2-Isopropylphenyl)-N-(4-(1-methyl-4-(trifluoromethyl)-1H-imidazol-2-yl)benzyl)-5-morpholinopyrimidin-4-amine] stands 6.2 nM; under `Cc1cc(C(F)(F)F)nn1-c1ccc(CNc2nc(-c3ccccc3C(C)C)ncc2O)cc1` [Example 90, 2-(2-Isopropylphenyl)-4-((4-(5-methyl-3-(trifluoromethyl)-1H-pyrazol-1-vl)benzyl)amino)pyrimidin-5-ol], 102 nM.

On to `COc1cnc(-c2c(OC)ncnc2C2CC2)nc1NCc1ccc2c(c1)CCN(C(C)C)C2=O` [Example 97, 6-(((4'-Cyclopropyl-5,6'-dimethoxy-[2,5'-bipyrimidin]-4-yl)amino)methyl)-2-isopropyl-3,4-dihydroisoquinolin-1(2H)-one], for which the IC50 turned out to be 263 nM. In the case of `COc1ncnc(C2CC2)c1-c1ncc(OC(C)C)c(NCC23CCC(c4ccc(C(F)(F)F)cn4)(CC2)CC3)n1` [Example 112, 4'-Cyclopropyl-5-isopropoxy-6'-methoxy-N-((4-(5-(trifluoromethyl)pyridin-2-yl)bicyclo[2.2.2]octan-1-yl)methyl)-[2,5'-bipyrimidin]-4-amine], the IC50 stood at 266 nM.

The values are drawn from patent EP4741386A1 (Jiangsu Yahong Meditech Co., Ltd., priority 2023, dated 2025).
